The test system of the assay is 293T cells. It is filed as cell-based.

With `C=C(C)[C@@H]1CCC(C)=C[C@H]1c1c(O)cc(CCCCC)cc1O` [CBD, cannabidiol], the “production of gectosomes encapsulated Nluc cargo” value is “induces an elevated production”.

For the origin of these results see patent US20250177555A1 (priority 2022, published 2025).
